Earlier results, collected in patent publication US8853454B2, “Quaternary ammonium salts as microbe inhibitors” (Mionix Corporation, priority 2006, dated 2014).

Conditions: in vivo

OCCCl [2-chloroethanol]
oral lethal dose: 50 to 500 mg/kg
